Results published in PMC10969742, “A Phase I Study of the Oral Dual-Acting Pan-PI3K/mTOR Inhibitor Bimiralisib in Patients with Advanced Solid Tumors” (Cancers, 2024).
Like-named read-outs stand apart in the source and are kept apart here.

Test system: patients with advanced solid tumors
Assay type: in vivo
Method: This was a Phase 1, open-label, multi-center, non-randomized, dose escalation study evaluating DLTs, tolerability, PK, and preliminary efficacy of bimiralisib in the treatment of patients with advanced solid tumors for which no standard curative or life-prolonging therapy is available. This study was conducted in the US (MD Anderson Cancer Center, Houston; Mayo Clinic Rochester; Roswell Park Comprehensive Cancer Center, Buffalo; University Hospitals of Cleveland), Spain (Vall Hebron University Hospital), Switzerland (Basel University Hospital), and UK (University College London Hospitals NHS Trust and Oxford Universities NHS Trust).
The primary objective of the study was to determine the MTD of bimiralisib administered according to three different dosing schedules. Bimiralisib was formulated as 20 mg and 80 mg capsules for oral administration. The first dosing schedule to be evaluated was continuous (once daily) dosing over a 21-day cycle. […] Patients enrolled in the continuous schedule and intermittent schedule A received a single lead-in dose, administered on […] prior to the start of the first 21-day treatment cycle, to characterize single-dose pharmacokinetics. Based on the previous first-in-human trial with bimiralisib, together with the expected toxicity profile of PI3K/mTOR inhibitors, the starting dose (dose-level 1) of bimiralisib in Study PQR309-003 was set at 80 mg daily.
Safety was monitored by physical examination, vital signs, weight, electrocardiogram, ECOG performance status, laboratory evaluations (including glucose monitoring), and patient self-reported mood questionnaires, as well as AEs. All AEs were coded with NCI Common Terminology Criteria for Adverse Events (CTCAE) v4.03 [27]. The MTD was defined as the maximum dose level at which ≤1/6 patients have DLTs. A DLT was defined by the occurrence of grade 3 or 4 AE that is possibly, probably, or definitely related to bimiralisib within the first 21 days of treatment. Bimiralisib treatment was interrupted if patients experienced any DLTs. If the patient derived benefit from the treatment as determined by the investigator, treatment could be resumed at a lower dose in agreement with the study sponsor.
Patients were discontinued from trial if they had evidence of clinical, symptomatic, or radiographic disease progression or relapse, unacceptable drug related AEs, non-compliance to the protocol, voluntary withdrawal, or pregnancy. Treatment compliance was established with patient diaries and records of medication used and dosages administered.
Descriptive statistics were used to present the data. Categorical data were summarized in contingency tables presenting frequencies and percentages. Continuous data were summarized using the number of non-missing values (n), mean, standard deviation (SD), median, Q1, Q3, minimum and maximum values, as appropriate. Data were analyzed using SAS. No tests of significance were planned to compare study treatment groups on baseline data. The efficacy and safety analysis set comprised all patients who receive ≥1 dose of bimiralisib.

Nc1cc(C(F)(F)F)c(-c2nc(N3CCOCC3)nc(N3CCOCC3)n2)cn1 [bimiralisib, 5-(4,6-Dimorpholino-1,3,5-triazin-2-yl)-4-(trifluoromethyl)pyridin-2-amine]
Any TEAE (Continuous (n = 21)): 21 (100) n (%) | Any drug-related AE (Continuous (n = 21)): 21 (100) n (%) | Any drug-related grade ≥ 3 AE (Continuous (n = 21)): 11 (52.4) n (%) | Any drug-related serious AE (Continuous (n = 21)): 2 (10) n (%) | Any grade ≥ 3 TEAE (Continuous (n = 21)): 17 (81) n (%) | Any serious AE (Continuous (n = 21)): 9 (43) n (%) | Common TEAE: ALT elevation (Continuous (n = 21)): 1 (4.76) n (%) | Common TEAE: Abdominal pain (Continuous (n = 21)): 1 (4.76) n (%) | Common TEAE: Anemia (Continuous (n = 21)): 0 (0) n (%) | Common TEAE: Anxiety (Continuous (n = 21)): 5 (23.8) n (%) | Common TEAE: Ascites (Continuous (n = 21)): 0 (0) n (%) | Common TEAE: Asthenia (Continuous (n = 21)): 6 (28.6) n (%) | Common TEAE: Back pain (Continuous (n = 21)): 4 (19.1) n (%) | Common TEAE: Cachexia (Continuous (n = 21)): 4 (19.1) n (%) | Common TEAE: Cough (Continuous (n = 21)): 2 (9.5) n (%) | Common TEAE: Decreased appetite (Continuous (n = 21)): 11 (52.4) n (%) | Common TEAE: Dehydration (Continuous (n = 21)): 6 (28.6) n (%) | Common TEAE: Depression (Continuous (n = 21)): 5 (23.8) n (%) | Common TEAE: Diarrhea (Continuous (n = 21)): 10 (47.6) n (%) | Common TEAE: Disturbance attention (Continuous (n = 21)): 11 (52.4) n (%) | Common TEAE: Dry Mouth (Continuous (n = 21)): 10 (47.6) n (%) | Common TEAE: Dry skin (Continuous (n = 21)): 7 (33.3) n (%) | Common TEAE: Dysgeusia (Continuous (n = 21)): 4 (19.1) n (%) | Common TEAE: Dyspepsia (Continuous (n = 21)): 1 (4.76) n (%) | Common TEAE: Dyspnea (Continuous (n = 21)): 4 (19.1) n (%) | Common TEAE: Fatigue (Continuous (n = 21)): 13 (61.9) n (%) | Common TEAE: Headache (Continuous (n = 21)): 0 (0) n (%) | Common TEAE: Hyperglycemia (Continuous (n = 21)): 16 (76.2) n (%) | Common TEAE: Hyperinsulinemia (Continuous (n = 21)): 7 (33.3) n (%) | Common TEAE: Hyperkalemia (Continuous (n = 21)): 0 (0) n (%) | Common TEAE: Hyperphosphatasemia (Continuous (n = 21)): 1 (4.76) n (%) | Common TEAE: Hypokalemia (Continuous (n = 21)): 6 (28.6) n (%) | Common TEAE: Irritability (Continuous (n = 21)): 0 (0) n (%) | Common TEAE: Malaise (Continuous (n = 21)): 4 (19.1) n (%) | Common TEAE: Mucosal Inflammation (Continuous (n = 21)): 0 (0) n (%) | Common TEAE: Neck pain (Continuous (n = 21)): 0 (0) n (%) | Common TEAE: Pruritus (Continuous (n = 21)): 6 (28.6) n (%) | Common TEAE: Rash (Continuous (n = 21)): 4 (19.1) n (%) | Common TEAE: Tachycardia (Continuous (n = 21)): 4 (19.1) n (%) | Common TEAE: Upper respiratory tract infection (Continuous (n = 21)): 1 (4.76) n (%) | Common TEAE: Vomiting (Continuous (n = 21)): 10 (47.6) n (%) | Common TEAE: Weight decrease (Continuous (n = 21)): 11 (52.4) n (%) | Grade ≥ 3 TEAE: ALT elevation (Continuous (n = 21)): 1 (4.8) n (%) | Grade ≥ 3 TEAE: Dehydration (Continuous (n = 21)): 4 (19) n (%) | Grade ≥ 3 TEAE: Fatigue (Continuous (n = 21)): 7 (33.3) n (%) | Grade ≥ 3 TEAE: Hyperglycemia (Continuous (n = 21)): 6 (28.6) n (%) | Patients discontinuing study due to AE (Continuous (n = 21)): 5 (24.0%) n (%) | Study discontinuation due to AE: Dehydration (Continuous (n = 21)): 2 (9.5%) n (%) | Study discontinuation due to AE: Ejection Fraction decreased (Continuous (n = 21)): 1 (4.8%) n (%) | Study discontinuation due to AE: Fatigue (Continuous (n = 21)): 3 (14.3%) n (%) | Study discontinuation due to AE: Tumor pain (Continuous (n = 21)): 1 (4.8%) n (%) | Treatment-related death (Continuous (n = 21)): 0 (0) n (%) | Common TEAE: Upper respiratory tract infection (Intermittent A, n = 25): 3 (12) n (%) | Study discontinuation due to AE: Urinary Tract Infection (Intermittent A, n = 25): 1 (4.0%) n (%) | Treatment-related death (Intermittent A, n = 25): 0 (0) n (%) | Common TEAE: Upper respiratory tract infection (Intermittent B, n = 24): 1 (4.2) n (%) | Treatment-related death (Intermittent B, n = 24): 0 (0) n (%) | Common TEAE: Upper respiratory tract infection (Total n = 70): 5 (7.1) n (%) | Study discontinuation due to AE: Urinary Tract Infection (Total n = 70): 1 (1.4%) n (%) | Treatment-related death (Total n = 70): 0 (0) n (%) | Patients who died during the study (all patients, 19 patients): 27.1% | Grade > 3 TEAE fatigue, frequency (continuous dosing): 33.3% | Grade > 3 TEAE hyperglycemia, frequency (continuous dosing): 28.6% | Patients experiencing Grade > 3 TEAEs (continuous dosing): 81% | Patients who discontinued due to treatment-related fatigue (continuous dosing): 2 patients | Patients who discontinued the study due to AEs (continuous dosing): 5 patients | Treatment-emergent AE hyperglycemia, frequency (continuous schedule): 76.2% | Dose reduction due to TEAEs (continuous schedule, n = 2): 10% | Dose interruption due to TEAEs (continuous schedule, n = 11): 52% | Discontinued study treatment: AEs (human, in vivo): 12.9% | Grade > 3 TEAE hyperglycemia, frequency (human, in vivo): 12.5% | Patients experiencing one or more TEAEs (human, in vivo): 99% | Patients reporting one or more serious adverse events (SAEs) (human, in vivo): 40% | Patients who discontinued due to treatment-related fatigue (human, in vivo): 1 patients | Patients who discontinued the study due to AEs (human, in vivo): 3 patients | Patients with TEAEs related to the study drug (human, in vivo): 91% | SAEs considered related to study drug (human, in vivo): 6% | Study discontinuation due to AE: Dehydration (human, in vivo): 2 (2.8%) n (%) | Study discontinuation due to AE: Ejection Fraction decreased (human, in vivo): 1 (1.4%) n (%) | Study discontinuation due to AE: Tumor pain (human, in vivo): 1 (1.4%) n (%) | Treatment-emergent AE nausea, frequency (human, in vivo): 56–62.5% | Patients who discontinued due to AEs considered to be treatment-related (in vivo): five | SAEs considered related to study drug, number (in vivo): two | Grade > 3 TEAE fatigue, frequency (intermittent schedule A): 0% | Grade > 3 TEAE hyperglycemia, frequency (intermittent schedule A): 12% | Patients experiencing Grade > 3 TEAEs (intermittent schedule A): 56% | Patients who discontinued the study due to AEs (intermittent schedule A): 1 patients | SAEs considered related to study drug, number (intermittent schedule A): zero | Dose reduction due to TEAEs (intermittent schedule A, n = 0): 0% | Dose interruption due to TEAEs (intermittent schedule A, n = 9): 36% | Grade > 3 TEAE fatigue, frequency (intermittent schedule B): 8.3% | SAEs considered related to study drug, number (intermittent schedule B (diarrhea and hyperglycemia)): two | Dose reduction due to TEAEs (intermittent schedule B, n = 1): 4% | Dose interruption due to TEAEs (intermittent schedule B, n = 9): 38% | Deaths due to disease progression (of 19 deaths during the study): 16 patients | Deaths due to other reasons unrelated to bimiralisib (vessel rupture, sepsis, new small cell carcinoma) (of 19 deaths during the study): 3 patients
